These results are taken from article PMC3898838, “Design, Synthesis, and Biological Evaluation of an Allosteric Inhibitor of HSET that Targets Cancer Cells with Supernumerary Centrosomes” (Chemistry & Biology, 2013).

The test system of assay [1] is N1E-115 cells. Put plainly: Immunofluorescence, mitotic spindle morphology. Conditions: 2.5 hr, control 30%. The class given is cell-based, mouse. An excerpt:
(§1) Using IF, we next examined the mitotic phenotypes induced by CW069 in N1E-115 and NHDF cells, with a strong focus on centrosome numbers and mitotic spindle morphology. Antibodies against α-tubulin, CDK5RAP2, and DAPI were employed to visualize MTs, centrosomes, and DNA, respectively. We hypothesized that small-molecule inhibition of HSET would give rise to mitotic spindle defects similar to those reported after HSET knockdown by siRNA transfection ([Kwon et al., 2008]), and this was indeed the case. […] After treatment, the N1E-115 cells formed multipolar spindles due to a lack of centrosome clustering, consistent with HSET inhibition in cells with supernumerary centrosomes (Figure 4C).
(§2) […] Prewarmed 4% paraformaldehyde in PBS was then added to each well to fix the cells before washing with PBS. Permeabilization and blocking was performed by incubating the slides with 1% BSA, 0.3% Triton X-100, 5% goat serum in PBS (PBS/B/0.3%T+5%GS) for 1 hr while shaking them at room temperature (RT). The slides were incubated with primary antibody solutions (mouse monoclonal anti-α-Tubulin [catalog number T9026; Sigma-Aldrich] and rabbit anti-CDK5RAP2 [catalog number A300-554A; Bethyl Laboratories]) at 4°C for 16 hr. […]

The subject of assay [2] is NHDF cells. The assay can be described thus: Immunofluorescence, mitotic spindle morphology. The class given is cell-based, human. The conditions noted are these: 100 μM and 200 μM, 2.5 hr.
Source text: as §1, §2

Assay [3] relates to BT549 cells. The assay can be described thus: Immunofluorescence, mitotic spindle morphology. Conditions: BT549, 100 μM and 200 μM, 2.5 hr. Format: cell-based, human. The procedure:
(§3) […] Prewarmed 4% paraformaldehyde in PBS was then added to each well to fix the cells before washing with PBS. Permeabilization and blocking was performed by incubating the slides with 1% BSA, 0.3% Triton X-100, 5% goat serum in PBS (PBS/B/0.3%T+5%GS) for 1 hr while shaking them at room temperature (RT). The slides were incubated with primary antibody solutions (mouse monoclonal anti-α-Tubulin [catalog number T9026; Sigma-Aldrich] and rabbit anti-CDK5RAP2 [catalog number A300-554A; Bethyl Laboratories]) at 4°C for 16 hr. The slides were washed four times with PBS/B/0.3%T+5%GS and then incubated with secondary antibody solutions (anti-rabbit IgG Alexa Fluor 488 [catalog number A21206] and anti-mouse IgG Alexa Fluor 647 [catalog number A20990]; Invitrogen) and DAPI (catalog number D3571; Invitrogen) in deionized water (300 nM) in the dark at RT for 1 hr. After four washes with PBS/B/0.3%T+5%GS, the solution was replaced with PBS and the slides were stored at 4°C until imaging was performed. Images were gathered with the use of an ICys Research Imaging Cytometer (CompuCyte) or a tandem confocal microscope (Leica).
(§4) (1 picture or pasted object on this page, not shown here)

Assay [4] relates to MCF-7 cells. Put plainly: Immunofluorescence, mitotic spindle morphology. Format: cell-based, human. Conditions: MCF-7, 100 μM and 200 μM, 2.5 hr. The protocol: as §3, §4
Assay [5] deals with MDA-MB-231 cells. The assay can be described thus: Immunofluorescence, mitotic spindle morphology. The class given is cell-based, human. Conditions: MDA-MB-231, 100 μM and 200 μM, 2.5 hr. The protocol: as §3, §4
For assay [6], the system named is HeLa cells. Put plainly: Immunofluorescence after time-lapse imaging, monopolar/bipolar spindles. Format: cell-based, human. Conditions: 200 μM CW069, 100 μM monastrol, 40 mitotic cells. The text has this:
Immediately after time-lapse imaging, cells were fixed and antibodies against α-tubulin, CDK5RAP2, and DAPI were employed to visualize MTs, centrosomes, and DNA, respectively. […] Control HeLa cells formed mainly bipolar spindles (92%), with two centrosomes positioned at the spindle poles on either side of the metaphase plate (Figure 6C; Table 1). Similar numbers of bipolar spindles were formed in CW069-treated cells (95%; Figure 6C; Table 1). Monastrol-treated cells almost exclusively formed monopolar spindles (97%) with one pole surrounded by DNA ([Luo et al., 2004]; Figure 6C; Table 1). Normal bipolar spindle formation was indeed restored for many cells (45%) when the HSET inhibitor CW069 was administered along with the KSP inhibitor monastrol (Figure 6C; Table 1).
Cells were plated at a seeding density of 1.2 × 10^4 cells per well in Ibidi eight-well chamber slides, incubated for 24 hr, and then treated with compound for 3 hr. Prewarmed 4% paraformaldehyde in PBS was then added to each well to fix the cells before washing with PBS. Permeabilization and blocking was performed by incubating the slides with 1% BSA, 0.3% Triton X-100, 5% goat serum in PBS (PBS/B/0.3%T+5%GS) for 1 hr while shaking them at room temperature (RT). The slides were incubated with primary antibody solutions (mouse monoclonal anti-α-Tubulin [catalog number T9026; Sigma-Aldrich] and rabbit anti-CDK5RAP2 [catalog number A300-554A; Bethyl Laboratories]) at 4°C for 16 hr. The slides were washed four times with PBS/B/0.3%T+5%GS and then incubated with secondary antibody solutions (anti-rabbit IgG Alexa Fluor 488 [catalog number A21206] and anti-mouse IgG Alexa Fluor 647 [catalog number A20990]; Invitrogen) and DAPI (catalog number D3571; Invitrogen) in deionized water (300 nM) in the dark at RT for 1 hr. After four washes with PBS/B/0.3%T+5%GS, the solution was replaced with PBS and the slides were stored at 4°C until imaging was performed. Images were gathered with the use of an ICys Research Imaging Cytometer (CompuCyte) or a tandem confocal microscope (Leica).

In assay [7] the target is T1, full-length, N-terminal, 6His-tagged human HSET (Homo sapiens, UniProt Q9BW19).
T1 sequence (Q9BW19 307-663 limits assumed): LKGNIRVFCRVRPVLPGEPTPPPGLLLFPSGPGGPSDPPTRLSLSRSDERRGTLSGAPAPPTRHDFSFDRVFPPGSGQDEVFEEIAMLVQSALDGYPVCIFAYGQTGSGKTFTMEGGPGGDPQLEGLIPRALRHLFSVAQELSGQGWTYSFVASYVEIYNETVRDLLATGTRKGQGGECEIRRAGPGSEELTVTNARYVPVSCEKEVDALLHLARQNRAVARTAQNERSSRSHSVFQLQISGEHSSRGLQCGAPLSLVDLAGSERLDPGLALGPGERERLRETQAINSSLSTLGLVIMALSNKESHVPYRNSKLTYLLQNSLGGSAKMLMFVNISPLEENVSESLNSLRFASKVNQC
Put plainly: Differential scanning fluorimetry (DSF). The class given is binding. Conditions: CW069 0.03125-1 mM in 4% DMSO. The protocol:
DSF is an inexpensive and rapid method for identifying ligands of purified proteins, and relies on the difference in protein unfolding temperature in the presence and absence of a small molecule ([Niesen et al., 2007]). The unfolding temperature is measured by the increase in fluorescence of a dye with particular affinity for the hydrophobic regions of proteins, which become exposed upon unfolding ([Niesen et al., 2007]). The difference in the transition midpoint, ΔTm, in the presence of a ligand is related to its binding affinity; however, this is not a direct measure of the binding coefficient and therefore was not used to calculate the affinity of CW069 for HSET ([Holdgate and Ward, 2005]).
On the technique in general: DSF heats the sample and reads unfolding from a dye or from intrinsic fluorescence.

As to `O=C(O)c1cc(I)ccc1NC(=O)[C@H](Cc1ccccc1)NCc1ccccc1` [CW069], the multipolar spindle formation is on record as 98% in assay [1] (N1E-115, 100 μM) and 86% in assay [1] (N1E-115, 200 μM). In addition, in assay [2], the mitotic spindle morphology entry is listed as “unchanged compared with control”. The figures for the multipolar spindles entry in assay [3] and in assay [5] were “increased multipolar spindles” and “small but significant increase in multipolar spindles”, respectively. The bipolar spindle formation entry in assay [4] was “did not perturb bipolar spindle formation”. Moreover, the “Bipolar Spindle (%)” value in assay [6] was found to be 95%. The “Monopolar Spindle (%)” value in assay [6] is 5%. Besides, the “maximum HSET ΔTm” value in assay [7] is −8.0 °C.
